The record followed here is PMC10343225, “Investigating the Vital Role of the Identified Abietic Acid from Helianthus annuus L. Calathide Extract against Hyperuricemia via Human Embryonic Kidney 293T Cell Model” (Molecules, 2023).

This assay deals with T1, xanthine oxidase (XO) (Bos taurus, UniProt P80457).
T1 construct: gene XDH
The assay can be described thus: spectrophotometric xanthine oxidase assay, uric acid formation at […] nm (XO from Roche). Format: biochemical.

T1 sequence (P80457 2-1332): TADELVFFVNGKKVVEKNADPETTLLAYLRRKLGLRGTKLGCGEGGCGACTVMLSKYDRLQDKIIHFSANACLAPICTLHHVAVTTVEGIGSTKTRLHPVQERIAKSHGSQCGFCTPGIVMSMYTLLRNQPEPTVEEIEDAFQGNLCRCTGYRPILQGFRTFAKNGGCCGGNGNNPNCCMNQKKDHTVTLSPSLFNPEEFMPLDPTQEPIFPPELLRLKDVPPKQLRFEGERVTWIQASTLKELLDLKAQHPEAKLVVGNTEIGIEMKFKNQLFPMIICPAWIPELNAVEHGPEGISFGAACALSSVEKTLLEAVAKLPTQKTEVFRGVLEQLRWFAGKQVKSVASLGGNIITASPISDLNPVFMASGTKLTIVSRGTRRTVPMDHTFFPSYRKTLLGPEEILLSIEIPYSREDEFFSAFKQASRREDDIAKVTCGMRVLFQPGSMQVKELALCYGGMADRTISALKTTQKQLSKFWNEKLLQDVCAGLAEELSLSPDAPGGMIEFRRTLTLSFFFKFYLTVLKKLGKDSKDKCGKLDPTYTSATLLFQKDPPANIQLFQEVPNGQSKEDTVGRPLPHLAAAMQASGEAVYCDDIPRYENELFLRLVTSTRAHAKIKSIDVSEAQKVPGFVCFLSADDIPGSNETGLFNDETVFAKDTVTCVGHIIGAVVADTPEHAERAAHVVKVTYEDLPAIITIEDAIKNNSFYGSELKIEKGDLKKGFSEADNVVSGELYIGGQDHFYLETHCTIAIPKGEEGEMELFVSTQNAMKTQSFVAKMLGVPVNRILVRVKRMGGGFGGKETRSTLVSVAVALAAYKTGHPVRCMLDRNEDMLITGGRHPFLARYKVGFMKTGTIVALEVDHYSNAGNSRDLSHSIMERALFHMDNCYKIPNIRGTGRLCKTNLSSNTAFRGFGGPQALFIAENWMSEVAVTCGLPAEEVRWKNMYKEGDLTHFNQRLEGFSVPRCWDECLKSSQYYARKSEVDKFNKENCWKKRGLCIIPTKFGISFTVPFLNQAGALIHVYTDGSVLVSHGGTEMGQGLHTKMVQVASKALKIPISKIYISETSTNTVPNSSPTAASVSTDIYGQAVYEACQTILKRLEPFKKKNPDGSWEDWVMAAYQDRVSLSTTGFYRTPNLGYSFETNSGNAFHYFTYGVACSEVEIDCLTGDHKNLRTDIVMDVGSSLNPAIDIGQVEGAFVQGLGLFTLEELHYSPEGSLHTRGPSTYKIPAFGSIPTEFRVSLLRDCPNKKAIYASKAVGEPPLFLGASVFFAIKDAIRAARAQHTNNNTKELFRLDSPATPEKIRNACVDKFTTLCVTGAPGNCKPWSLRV

`CC(C)C1=CC2=CC[C@@H]3[C@](C)(CCC[C@@]3(C)C(=O)O)[C@H]2CC1` [AA, abietic acid]: the IC50 came to 10.6 µM.

The term IC50 denotes the concentration that gives 50% inhibition. Read a high IC50 as a need for much substance.
